# Data: ChEMBL document CHEMBL1141120, “Structure-based design and discovery of protein tyrosine phosphatase inhibitors incorporating novel isothiazolidinone heterocyclic phosphotyrosine mimetics” (J Med Chem, 2005)
# How the values were obtained:
# [1] = molecular target: T1, Tyrosine-protein phosphatase non-receptor type 1 (Homo sapiens, UniProt P18031); assay: Inhibition constant against protein-tyrosine phosphatase 1B by PNPP enzyme assay
# T1 sequence (P18031 whole entry): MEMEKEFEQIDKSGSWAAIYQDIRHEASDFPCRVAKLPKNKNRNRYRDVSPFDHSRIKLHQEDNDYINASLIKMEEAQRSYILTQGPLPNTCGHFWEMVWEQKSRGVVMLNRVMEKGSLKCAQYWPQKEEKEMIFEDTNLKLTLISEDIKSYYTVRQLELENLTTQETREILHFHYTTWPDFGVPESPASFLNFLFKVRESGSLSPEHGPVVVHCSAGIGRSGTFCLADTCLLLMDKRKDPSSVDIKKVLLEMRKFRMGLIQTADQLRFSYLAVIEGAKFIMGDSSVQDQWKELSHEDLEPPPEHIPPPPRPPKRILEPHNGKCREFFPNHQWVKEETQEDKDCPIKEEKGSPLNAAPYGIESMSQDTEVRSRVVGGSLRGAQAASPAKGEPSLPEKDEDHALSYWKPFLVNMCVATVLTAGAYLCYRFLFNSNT
# [2] = molecular target: T1, Tyrosine-protein phosphatase non-receptor type 1; assay: Inhibitory concentration against protein-tyrosine phosphatase
# [3] = molecular target: T2, Tyrosine-protein phosphatase non-receptor type 2 (Homo sapiens, UniProt P17706); assay: Inhibitory concentration against T cell protein tyrosine phosphatase
# T2 sequence (P17706 whole entry): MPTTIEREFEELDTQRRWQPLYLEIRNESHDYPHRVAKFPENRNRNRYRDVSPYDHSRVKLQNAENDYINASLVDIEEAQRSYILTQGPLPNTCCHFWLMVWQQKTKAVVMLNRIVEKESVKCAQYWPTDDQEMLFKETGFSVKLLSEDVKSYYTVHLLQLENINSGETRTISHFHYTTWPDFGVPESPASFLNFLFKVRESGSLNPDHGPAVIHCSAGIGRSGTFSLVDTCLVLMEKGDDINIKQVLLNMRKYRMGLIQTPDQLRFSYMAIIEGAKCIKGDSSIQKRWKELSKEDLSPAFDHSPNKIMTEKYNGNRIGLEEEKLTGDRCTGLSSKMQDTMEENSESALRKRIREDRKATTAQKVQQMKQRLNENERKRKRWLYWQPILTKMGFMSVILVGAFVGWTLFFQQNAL
smiles,measurement,setting,value
CC(=O)N[C@@H](Cc1ccccc1)C(=O)N[C@@H](Cc1ccc([C@@H]2CC(=O)NS2(=O)=O)cc1)C(N)=O,Ki,[1],180 nM
same,IC50,[2],> 100000 nM
same,IC50,[3],135 nM
